# In patent publication US20100215620A1, “THE CO-CULTURE METHOD OF SPHINGOMONAS SP. BACTERIAL STRAIN AND ASPERGILLUS SP. FUNGUS STRAIN, NEW ANTI-CANCER AND ANTIBIOTIC GLIONITRINS DERIVED FROM THIS CO-CULTURE METHOD, AND PHARMACEUTICAL COMPOSITION CONTAINING GLIONITRINS OR PHARMACEUTICALLY ACCEPTABLE SALT THEREOF AS AN ACTIVE INGREDIENT” (KOREA INSTITUTE OF SCIENCE AND TECHNOLOGY, priority 2007, published 2010):
# Where two headings read alike, the source gives them in different places.
# Columns and labels:
# [1] = tested on: Aspergillus fumigatus HIC 6094; experiment: Antifungal MIC, Sabouraud glucose liquid medium; format: cell-based
# Text: (§1) The present inventors also evaluated antifungal activity of glionitrins A and B against those strains distributed from American Type Culture Collection (ATCC, Manassas, Va., USA) such as Aspergillus fumigatus HIC 6094 and Trichophyton rubrum IFO 9185. […] To determine MIC of glionitrin for those two fungus strains, spores of the fungus strains were suspended in sterilized distilled water at the density of 10^5 spores/mL and the density was adjusted by using Sabouraud glucose liquid medium (Difco) to 10^3 cells/mL. Then, the cells were distributed in a 96-well plate at the density of 10^2 cells/100 μl/well, to which glionitrin was added at different concentrations, followed by culture at 28° C. for […]. The concentration of glionitrin at which no fungi growth was confirmed was determined as MIC.
# [2] = tested on: Trichophyton rubrum IFO 9185; experiment: Antifungal MIC, Sabouraud glucose liquid medium; format: cell-based
# Text: as §1
# [3] = tested on: Proteus vulgaris ATCC 3851[G(−)]; experiment: Antibacterial MIC, broth dilution, OD600; format: cell-based
# Protocol: (§2) The present inventors also investigated antibacterial effect of glionitrin A and glionitrin B using Micrococcus leuteus IFC 12708, Bacillus subtilis ATCC 6633, Proteus vulgaris ATCC 3851, Salmonella typhimurium ATCC 1 4028 and 3 MRSA strains, Staphylococcus aureus ATCC 43300, S. aureus ATCC 700787 and S. aureus ATCC 700788 distributed from American Type Culture Collection (ATCC, Manassas, Va., USA). […] Then, the medium was eliminated and 100 μl of medium containing 10^5 cfu/mL of each strain was loaded in each well of a 96-well plate. Glionitrin diluted at different concentrations was added thereto, followed by culture at 37° C. for 24 hours. 24 hours later, OD600 was measured.
# [4] = tested on: S. aureus ATCC 700787(MRSA); experiment: Antibacterial MIC, broth dilution, OD600; format: cell-based; conditions: Staphylococcus aureus, 24 h
# Protocol: as §2
# [5] = tested on: S. aureus ATCC 700788(MRSA); experiment: Antibacterial MIC, broth dilution, OD600; format: cell-based; conditions: Staphylococcus aureus
# Protocol: as §2
# [6] = tested on: Bacillus subtilis ATCC 6633 [G(+)]; experiment: Antibacterial MIC, broth dilution, OD600; format: cell-based
# Protocol: as §2
# [7] = tested on: Salmonella typhimurium ATCC 14028[G(−)]; experiment: Antibacterial MIC, broth dilution, OD600; format: cell-based; conditions: Salmonella enterica
# Protocol: as §2
# [8] = tested on: Staphylococcu aureus ATCC 4330(MRSA); experiment: Antibacterial MIC, broth dilution, OD600; format: cell-based; conditions: Staphylococcus aureus, 24 h
# Protocol: as §2
# [9] = tested on: Micrococus leuteus IFC 12708[G(+)]; experiment: Antibacterial MIC, broth dilution, OD600; format: cell-based, Micrococcus leuteus; conditions: Micrococcus
# Protocol: as §2
# [10] = tested on: HepG2 (liver cancer, HB-8065); experiment: In vitro MTT cytotoxicity assay; format: cell-based; conditions: Homo sapiens, HepG2, 24 h
# Protocol: (§3) The present inventors investigated cytotoxic effect of glionitrin on cancer cells with in vitro MTT (3-[4,5-dimethylthiazol-2-yl]-2,5-diphenyltrazdium bromide) assay to quantify live cancer cells. Cancer cell cytotoxicity of glionitrin was evaluated using AGS (stomach cancer, ATCC CRL-1739™), HepG2 (liver cancer, HB-8065™), HCT116 (colon cancer, CCL-247™), A549 (lung cancer, CCL-185™) and DU145 (prostatic cancer, HTB-81™) distributed from American Type Culture Collection (ATCC, Manassas, Va., USA). Stomach cancer (AGS), liver cancer (HepG2), colon cancer (HCT-116), lung cancer (A549) or prostatic cancer (DU-145) cells were distributed in a 96-well plate at the density of 1×10^4 cells/100 μl/well, followed by culture in a 37° C., CO2 incubator for 24 hours. Then, the medium was replaced with a fresh one containing glionitrin, followed by culture at 37° C. 24 hours later, MTT solution was added thereto by 10 μl/well, followed by further culture for 1 hour at 37° C. One hour later, formazane generated by reductase in live cells was quantified by measuring OD450.
# [11] = tested on: HCT-116 (colon cancer, CCL-247); experiment: In vitro MTT cytotoxicity assay; format: cell-based; conditions: Homo sapiens, HCT-116, 24 h
# Protocol: as §3
# [12] = tested on: AGS (stomach cancer, ATCC CRL-1739); experiment: In vitro MTT cytotoxicity assay; format: cell-based; conditions: 24 h
# Protocol: as §3
# [13] = tested on: DU-145 (prostatic cancer, HTB-81); experiment: In vitro MTT cytotoxicity assay; format: cell-based; conditions: Homo sapiens, DU-145, 24 h
# Protocol: as §3
# [14] = tested on: A549 (lung cancer, CCL-185); experiment: In vitro MTT cytotoxicity assay; format: cell-based; conditions: Homo sapiens, A549, 24 h
# Protocol: as §3
# MCF-7 = experiment: In vitro MTT cytotoxicity assay; format: cell-based; conditions: Homo sapiens, MCF7
# [15] = Stability of glionitrin A in solution at room temperature; format: physicochemical; conditions: water, acetonitrile aqueous solution, methanol aqueous solution or DMSO
# Text: The chemical structures of the separated compounds were identified by using MS and nuclear spectrometer. As a result, it was confirmed that glionitrin A was amorphous light yellow powder represented by the molecular formula of C13H11N3O5S2 which had the molecular weight of 353, and glionitrin B was colorless mucous semi-solid material represented by the molecular formula of C15H17N3O5S2 which had the molecular weight of 383.
# The present inventors performed instrumental analysis with glionitrins to determine the chemical formulas of glionitrin A and glionitrin B. The separated glionitrin A was left in water or DMAO at room temperature. […] Glionitrin A was measured in chloroform-d solvent and glionitrin B was measured in methanol-d4 solvent.
# 3 MRSA strains = experiment: Antibacterial MIC; format: cell-based, Staphylococcus aureus; conditions: against 3 MRSA strains
# Protocol: as §2
# [16] = tested on: Aspergillus fumigatus HIC 6094 and Trichophyton rubrum IFO 9185; experiment: Antifungal MIC; format: cell-based
# Text: as §1
# 4 non-resistant strains = experiment: Antibacterial MIC; format: cell-based
# Protocol: as §2
# 7 bacterial strains = experiment: Antibacterial activity, text summary for the 7 bacterial strains; format: cell-based; conditions: every experimental group (7 bacterial strains)
# Protocol: as §2
# [17] = ATCC3851, Proteus vulgaris ATCC 3851, 37° C., 24 hours, read-out: MIC
# [18] = ATCC6633, Bacillus subtilis ATCC 6633, 37° C., 24 hours, read-out: MIC
# [19] = Salmonella typhimurium ATCC 14028, 37° C., 24 hours, read-out: MIC
# [20] = Micrococus leuteus IFC 12708, 37° C., 24 hours, read-out: MIC
compound,measurement,setting,value
"C[C@@H]1[C@H](O)[C@@H](C)/C=C/C=C/C=C/C=C/C=C/C=C/C=C/[C@H](O[C@@H]2O[C@H](C)[C@@H](O)[C@H](N)[C@@H]2O)C[C@@H]2O[C@](O)(C[C@@H](O)C[C@@H](O)[C@H](O)CC[C@@H](O)C[C@@H](O)CC(=O)O[C@H]1C)C[C@H](O)[C@H]2C(=O)O [amphotericin B, reference compound]",MIC,"[1]; Aspergillus fumigatus HIC 6094, 28° C.",1.56 µg/mL
same,MIC,"[2]; Trichophyton rubrum IFO 9185, 28° C.",1.56 µg/mL
"CC1(C)S[C@@H]2[C@H](NC(=O)[C@H](N)c3ccccc3)C(=O)N2[C@H]1C(=O)O [ampicillin, reference compound]",MIC,[3]; [17],1.56 µg/mL
same,MIC,[4],12.5 µg/mL
same,MIC,"[5]; S. aureus ATCC 700788 (MRSA), 37° C., 24 hours, read-out: MIC",25 µg/mL
same,MIC,[6]; [18],3.13 µg/mL
same,MIC,[7]; [19],12.5 µg/mL
same,MIC,[8],12.5 µg/mL
same,MIC,[9]; [20],0.78 µg/mL
CN1C(=O)C23Cc4ccc([N+](=O)[O-])cc4N2C(=O)C1(CO)SS3 (stereo not shown) [glionitrin A],MIC,"[3]; Proteus vulgaris, ATCC3851, 24 h",3.13 µg/mL
same,MIC,[4],0.78 µg/mL
same,MIC,[5]; 24 h,0.78 µg/mL
same,MIC,"[6]; Bacillus subtilis, ATCC6633, 24 h",6.25 µg/mL
same,MIC,[7]; 24 h,3.13 µg/mL
same,MIC,[8],0.78 µg/mL
same,IC50,[10],2280 ± 300 nM
same,IC50,[11],820 ± 110 nM
same,IC50,[12],450 ± 110 nM
same,IC50,[13],240 ± 20 nM
same,IC50,[14],550 ± 70 nM
same,MIC,[9]; 24 h,0.78 µg/mL
same,IC50,MCF-7,> 2000 nM
same,stability in solution,[15],trisulfide (glionitrin C) and tetrasulfide (glionitrin D) were generated
same,MIC,"[1]; Aspergillus fumigatus, HIC6094",12.5 µg/mL
same,MIC,"[2]; Trichophyton rubrum, IFO9185",12.5 µg/mL
same,MIC,3 MRSA strains; Staphylococcus aureus,0.78 µg/mL
same,antibacterial activity relative to ampicillin,3 MRSA strains; versus positive control ampicillin,15 times
same,MIC,[16]; read-out: MIC (antifungal activity),12.5 µg/mL
same,MIC,4 non-resistant strains,0.78 to 3.13 µg/mL
CSC1(CO)C(=O)N2c3cc([N+](=O)[O-])ccc3CC2(SC)C(=O)N1C (stereo not shown) [glionitrin B],MIC,[3]; [17],> 50 µg/mL
same,MIC,[4],> 50 µg/mL
same,MIC,[5]; 24 h,> 50 µg/mL
same,MIC,[6]; [18],> 100 µg/mL
same,MIC,[7]; [19],> 50 µg/mL
same,MIC,[8],> 50 µg/mL
same,IC50,"[10]; MTT, read-out: IC50",> 2000 nM
same,IC50,"[11]; MTT, read-out: IC50",3280 ± 550 nM
same,IC50,"[12]; AGS, MTT, read-out: IC50",1250 ± 200 nM
same,IC50,"[13]; MTT, read-out: IC50",2290 ± 140 nM
same,IC50,"[14]; MTT, read-out: IC50",2250 ± 250 nM
same,MIC,[9]; [20],> 100 µg/mL
same,IC50,"MCF-7; MCF-7, MTT, read-out: IC50",> 2000 nM
same,antibacterial activity,7 bacterial strains,no antibacterial activity at all
same,MIC,"[1]; HIC6094, Aspergillus fumigatus HIC 6094, 28° C., read-out: MIC",> 50 µg/mL
same,MIC,"[2]; IFO9185, Trichophyton rubrum IFO 9185, 28° C., read-out: MIC",> 50 µg/mL
same,antifungal activity,[16]; Aspergillus fumigatus HIC 6094 and Trichophyton rubrum IFO 9185,did not show antifungal activity
